This note sets out measurements from article PMC12573178, “Substrate-Guided Development of HDAC11-Selective Inhibitors Featuring α‑Amino Amide Zinc-Binding Groups” (ACS Omega, 2025).

For one series, the target named is T1, SIRT3 (Homo sapiens, UniProt Q9NTG7).
T1 sequence (Q9NTG7 1-399): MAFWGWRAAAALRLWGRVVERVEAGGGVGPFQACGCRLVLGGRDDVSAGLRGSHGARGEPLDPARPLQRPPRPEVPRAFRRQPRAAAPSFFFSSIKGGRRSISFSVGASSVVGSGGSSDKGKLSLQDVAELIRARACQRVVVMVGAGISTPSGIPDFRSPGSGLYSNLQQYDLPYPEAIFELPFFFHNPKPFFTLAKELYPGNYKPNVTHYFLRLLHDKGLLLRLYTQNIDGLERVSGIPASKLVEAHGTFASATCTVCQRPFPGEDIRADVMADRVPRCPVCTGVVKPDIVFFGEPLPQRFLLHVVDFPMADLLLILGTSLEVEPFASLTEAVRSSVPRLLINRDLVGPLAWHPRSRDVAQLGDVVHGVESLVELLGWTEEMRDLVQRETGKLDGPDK
As to the kind of experiment: SIRT3 discontinuous demyristoylation inhibition assay. Type of series: biochemical. The method, then: Inhibition of the enzymatic activity of HDACs was performed continuously for HDAC8, HDAC11, and SIRT2 and discontinuously for SIRT2, 3, and 6 using adequate substrates as described previously. , Experimental details are given in the Supporting Information.
A. HDAC and SIRT deacylase activity assays […]
140 mM NaCl, 10 mM MgCl 2, 1 mM tris(2-carboxyethyl)phosphine (TCEP), and 0.2 mg/ml BSA, pH 7.4 adjusted with NaOH), HDAC11 buffer (20 mM HEPES, 70 µM TCEP and 2 mg/ml BSA, pH 7.4 adjusted with NaOH) or SIRT buffer (20 mM Tris, 150 mM NaCl, 5 mM MgCl2 and 2 mg/ml BSA pH 7.8 adjusted with HCl), respectively. The thiotrifluoracetylated substrate Abz-SRGGK(thio-TFA)FFRR-NH2 (50 µM) […]
Aun is N-(2-aminobenzoyl)-11-aminoundecanoyl, was used for HDAC11 and Ac-EALPKK(Myr)T-C(Fluorescein)-G-NH2 (40 nM) was used for SIRT2 1-3. […]
(substrate, DMSO, and Buffer) controls were included in every measurement and were set as 100% and 0%, respectively. The measured values were normalized accordingly. […]
Reactions were stopped after 20 min by adding a constant volume of reaction mixture to stop solution (5 % acetonitrile (ACN) (v/v) and 1 % trifluoroacetic acid (TFA) (v/v) in dd. H 2O). The samples were analysed using HPLC-UV/VIS at λ Abs = 220 nm, λ Ex = 320 nm und λ Em = 420 nm. […]
100 nM, SIRT3: 200 nM, SIRT6: 500 nM). […] The samples were analysed using HPLC-UV/VIS at λ Abs = 360 nm. […]

Series [1] in a line: Compound stability in human serum. Type of series: in vitro ADME. To be noted: 37 °C, 150 μM 31, after 24 h. The method, then: (§1) H Stability and permeability of 31 […]
(§2) stability was performed as described 21. Briefly, 400 µl of human serum or cell lysate from HEK293 cells (1 mg/ml) were incubated at 37 °C with 150 μM of 31 with 5% (v/v) DMSO. Samples of 45 µl were taken out at different time points and quenched with 50 µl of aqueous urea (6 M) and 100 µl of ACN.
(§3) Following centrifugation, 2 µl of a 2% (m/v) K 2CO3 solution in H2O and 1.5 µl of a 0.2 M Fmoc-OSu in ACN were added to the samples, which were then shaken at 1000 rpm for two hours at room temperature. This enabled the quantification of the residual amount of the compound via UPLC-UV/VIS at 260 nm. Compound peak areas were integrated. The experiments were performed in triplicate.
(§4) After 24h, 7% of 31 remained […]
(§5) detectable in cell lysate, and 20 % of 31 were still present in human serum (Figure S 38). […]
(§6) shown as mean values relative to the peak intensity at 0 h. Error bars represent the SD of three replicates.
(§7) For cell permeability studies, 40 µM of 31 were incubated with HEK293 cells in DMEM medium supplemented with 10 % FCS at 37°C overnight. The cells were harvested, washed extensively with ice-cold PBS and lysed in RIPA buffer. The sample was diluted 1:1 (v/v) with a solution of ACN : H 2O (1:1 )) before analyzing via UPLC-MS. […]

Series [2] is described as follows: Compound stability in HEK293 cell lysate. Type of series: in vitro ADME. To be noted: HEK293 cell lysate (1 mg/ml), 37 °C, 150 μM 31, after 24 h. The procedure: as §1, §2, §3, §4, §5, §6, §7
Another series has as its system HEK293 cells. As to the kind of experiment: Cell permeability / uptake, UPLC-MS of cell lysate. To be noted: 40 µM 31, 37 °C overnight, detected by mass spectrometry in cell lysate. The class given is cell-based. The procedure: as §1, §2, §3, §4, §5, §6, §7
B Mass spectrum of the peak detected at 3.62 […]

“Also recorded” adds a separate entry of the source.

As to `CCCCCCCCCCCCSC[C@@H](N)C(=O)NCCCC[C@@H]1NC(=O)[C@H](CCC(N)=O)NC1=O` [Compound 31], the IC50 (commonly the point on the concentration scale where inhibition reaches its midpoint) against SIRT3 is greater than 100 µM. In addition, the inhibition (usually the change of the read-out against control, counted positive when it falls) at 50 µM against SIRT3 (50 μM 31) worked out at 1.6%. Also, the compound remaining in series [1] is on record as 20%; in series [2], 7%. Moreover, the “Uptake by HEK293 cells” value with HEK293 cells is listed as “uptake of compound 31 by HEK293 cells; also recorded: showed uptake by HEK293 cells”.
